Laboratory results reported in patent EP4400508A1, “ACTIVE PEPTIDE AND USE THEREOF” (Harvest Biotech Co., Ltd, priority 2021, dated 2024).
No end group written: not given here.

Tested on: Chicken Embryo
Assay: Chicken embryo safety test (HET-CAM, SN/T 2329-2009), irritation score method
Settings: dose up to 500 ppm

With ESETRILLQ [EQ-9, ESETRILLQ] the “Irritation Classification” value (HET-CAM) was “non-irritant”, the “irritation score (IS)” value (HET-CAM) was 0.35 and the safety issue (FIG. 1) was “no safety issue”.
